Here are results for 1 molecule from US12661333B2, “Composition for use in treatment of a biofilm in a subject” (TECHNOLOGICAL UNIVERSITY DUBLIN, priority 2020, dated 2026).

Series [1] deals with human gingival fibroblasts (HGFs). Further details: dose or concentration left out as unconfirmed. Particulars: exposed for 24 and 48 hours; cited from earlier work.
The subject of series [2] is human periodontal ligament cells (hPDLCs). Further details: dose or concentration left out as unconfirmed. Particulars: exposed for 24 and 48 hours; cited from earlier work.
The test system of series [3] is Enterococcus faecalis ATCC 7080. The series can be described thus: Biofilm formation in vitro, crystal violet assay. As to conditions: for reduction of biofilm formation versus control: 24 hours, 37° C., FIG. 1B. The class given is cell-based. Here is the method:
(§1) FIG. 1: The effect of varying concentrations of DHA on the ability of Klebsiella pneumoniae NCIMB 418 (A) and Enterococcus faecalis ATCC 7080 (B) to form a biofilm in vitro. (10^6 CFU/well was incubated with various concentrations of DHA in a 96 well plate for 24 hours statically at 37° C. Biofilm formation was assessed using the crystal violet assay. Data represents the mean±SD for six independent experiments, carried out in triplicate. One-way ANOVA was performed for statistical analysis. *****P<0.001 compared to both the control (no DHA) and vehicle control (1% DMSO).
The effect of varying concentrations of DHA on the ability of Klebsiella pneumoniae NCIMB 418 and Enterococcus faecalis ATCC 7080 to form a biofilm in vitro was investigated. 10^6 CFU/well was incubated with various concentrations of DHA in a 96 well plate for 24 hours statically at 37° C. Biofilm formation was assessed using the crystal violet assay. Data represents the mean±SD for six independent experiments, carried out in triplicate. The assay involves seeding cells at 10^^6 CFU/ml in media with DHA. Cells were then left for 24 hrs to form biofilms before washing and staining with Crystal Violet. Crystal violet adheres to cells stuck to the sides of the tube/well. The samples is washed again to remove any unbound dye before dissolving the stain in acetic acid and measuring the reading in a spectrophotometer. The colour intensity relates to the level of biofilm present. The more colour the more bacteria in the biofilm. Merritt, J. H., Kadouri, D. E. and O'Toole, G. A. (2005) ‘Growing and Analyzing Static Biofilms’, Current Protocols in Microbiology, Chapter 1(Jul), p. Unit 1B.1.

Series [4] relates to Klebsiella pneumoniae NCIMB 418. Put plainly: Biofilm formation in vitro, crystal violet assay. The class given is cell-based. Particulars: for reduction of biofilm formation versus control: 24 hours, 37° C., FIG. 1A. Here is the method: as §1
FIG. 2: Comparing DNA (16 μM) and Erythromycin (4 μg/ml) individually and adjunct for antibiofilm effects against Klebsiella pneumoniae NCIMB 481 in vitro. 10^6 CFU/well was incubated with each well of a 96 well plate for 24 hours statically at 37° C. Biofilm formation was assessed using the crystal violet assay. Data represents the mean±SD for four independent experiments, carried out in triplicate. One-way ANOVA was performed for statistical analysis. *****P<0.001 compared to both the control (no DHA or Erythromycin), vehicle control (1% DMSO), DHA (16 μM) and Erythromycin (4 μg·mL).
The effect of varying concentrations of DHA on the ability of Klebsiella pneumoniae NCIMB 418 and Enterococcus faecalis ATCC 7080 to form a biofilm in vitro was investigated. 10^6 CFU/well was incubated with various concentrations of DHA in a 96 well plate for 24 hours statically at 37° C. Biofilm formation was assessed using the crystal violet assay. Data represents the mean±SD for six independent experiments, carried out in triplicate. The assay involves seeding cells at 10^^6 CFU/ml in media with DHA. […] The samples is washed again to remove any unbound dye before dissolving the stain in acetic acid and measuring the reading in a spectrophotometer. […]
The effects of DHA (16 μM) and Erythromycin (4 μg/ml) were compared individually and adjunct for antibiofilm effects against Klebsiella pneumoniae NCIMB 481 in vitro. […] Biofilm formation was assessed using the crystal violet assay. […]

[5] abbreviates: summary of FIG. 1, concentration not stated.

Consider `CC/C=C\C/C=C\C/C=C\C/C=C\C/C=C\C/C=C\CCC(=O)O` [DHA, docosahexaenoic acid], for which the cytotoxic effects result in series [1] and in series [2] was “cytotoxic effects” throughout. The “reduction of biofilm formation versus control” value is around 20% in series [3] (DHA 6.25 μM), around 65% in series [3] (DHA 100 μM), around 40% in series [4] (DHA 6.25 μM) and around 65% in series [4] (DHA 100 μM). The reducing biofilm formation entry in series [3] (setting [5]) and in series [4] (setting [5]) was “approximately 60%” in each case.
